According to publication PMC8556085, “Antimicrobial and Antioxidant Secondary Metabolites from Trifolium baccarinii Chiov. (Fabaceae) and Their Mechanisms of Antibacterial Action” (BioMed Research International, 2021):
Values after ≈ are worked out from the molar mass of the structure shown. Marks after values point to notes of the source that are not given here.

What was measured:
[1] = system: Candida albicans ATCC10231; experiment: Broth microdilution MIC/MMC; format: cell-based
Method in brief: (§1)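 Twofold broth microdilution in MHB (bacteria) or SDB (yeasts), final range 2048–0.125 μg/mL. Inocula were 1 × 10^6 CFU/mL for bacteria, incubated at 37 °C for 24 h with shaking, and 1 × 10^5 spores/mL for yeasts (C. albicans 30 °C 48 h; C. neoformans 30 °C 72 h). MIC was the lowest concentration with no visible growth, in triplicate.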

[2] = system: Cryptococcus neoformans H99; experiment: Broth microdilution MIC/MMC; format: cell-based
Method in brief: as §1

[3] = system: Escherichia coli S2(1); experiment: Broth microdilution MIC/MMC; format: cell-based
Method in brief: as §1

[4] = system: Pseudomonas aeruginosa ATCC27853; experiment: Broth microdilution MIC/MMC; format: cell-based
Method in brief: as §1

[5] = system: Staphylococcus aureus ATCC25923; experiment: Broth microdilution MIC/MMC; format: cell-based
Method in brief: as §1

[6] = system: methicillin-resistant Staphylococcus aureus 03 (MRSA03); experiment: Broth microdilution MIC/MMC; format: cell-based
Method in brief: as §1

[7] = system: methicillin-resistant Staphylococcus aureus 04 (MRSA04); experiment: Broth microdilution MIC/MMC; format: cell-based
Method in brief: as §1

[8] = system: tested bacteria and yeasts; experiment: Broth microdilution MIC/MMC, summary over all strains; format: cell-based
Method in brief: as §1

[9] = DPPH free radical scavenging assay; settings: mean ± SD
Description: The free radical scavenging activity of extracts and compounds was evaluated according to the described method. The EC50 (μg/mL), which is the amount of sample necessary to inhibit by 50% the absorbance of free radical DPPH, was calculated. Vitamin C was used as a standard control. All the analyses were carried out in triplicate and repeated three times.

[10] = Gallic acid equivalent antioxidant capacity (GEAC) assay; settings: ABTS radical, 420 nm, 240 s; mean ± SD
Method in brief: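 Purified Sclerotinia sclerotiorum laccase oxidises ABTS in acetate buffer pH 5.0 (100 mM); ABTS●+ read at 420 nm after 240 s. Samples at 10–800 μg/mL (extracts) or 12.5–200 μg/mL (isolated compounds) in assay. Values expressed as gallic acid equivalents from a 0–84 μM gallic acid calibration curve; triplicates, three repeats.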

[11] = system: Gram-positive (S. aureus, S. epidermidis) and Gram-negative (P. aeruginosa) bacteria; set-up: method as in PMID 26887239; settings: cited from earlier work
[12] = system: yeasts (C. albicans, C. tropicalis, and C. neoformans); set-up: method as in PMID 26887239; settings: cited from earlier work
[13] = set-up: method as in doi:10.22159/ijpps.2017v9i2.13964; settings: cited from earlier work
[14] = set-up: method as in doi:10.22159/ijpps.2017v9i2.13964; settings: cited from earlier work; remark: listed apart in the source
[15] = set-up: method as in doi:10.22159/ijpps.2017v9i2.13964; settings: cited from earlier work; remark: listed apart in the source
[16] = set-up: method as in doi:10.22159/ijpps.2017v9i2.13964; settings: cited from earlier work; remark: listed apart in the source
[17] = set-up: method as in doi:10.22159/ijpps.2017v9i2.13964; settings: cited from earlier work; remark: listed apart in the source
[18] = Pseudomonas aeruginosa ATCC27853
[19] = Staphylococcus aureus ATCC25923

Structure (SMILES): COc1ccc(-c2coc3cc(O)ccc3c2=O)cc1 [compound 2, formononetin]
- MFC ([1]; Candida albicans ATCC10231): 128 µg/mL (≈ 477 µM)
- MMC/MIC ([1]; Candida albicans ATCC10231): 2
- MIC ([1]; Candida albicans ATCC10231, 48 h, 30°C, read-out: MIC): 64 µg/mL (≈ 239 µM)
- MFC ([2]; Cryptococcus neoformans H99): 64 µg/mL (≈ 239 µM)
- MMC/MIC ([2]; Cryptococcus neoformans H99): 1
- MIC ([2]; Cryptococcus neoformans H99, 72 h, 30°C, read-out: MIC): 64 µg/mL (≈ 239 µM)
- MBC [3]: 128 µg/mL (≈ 477 µM)
- MMC/MIC [3]: 2
- MIC ([3]; 24 h, 37°C, read-out: MIC): 64 µg/mL (≈ 239 µM)
- MBC [4, 18]: 128 µg/mL (≈ 477 µM)
- MMC/MIC [4, 18]: 1
- MIC ([4]; Pseudomonas aeruginosa ATCC27853, 24 h, 37°C, read-out: MIC): 128 µg/mL (≈ 477 µM)
- MBC [5, 19]: 128 µg/mL (≈ 477 µM)
- MMC/MIC [5, 19]: 2
- MIC ([5]; Staphylococcus aureus ATCC25923, 24 h, 37°C, read-out: MIC): 64 µg/mL (≈ 239 µM)
- MMC/MIC ([6]; MRSA03): 2
- MBC ([6]; Staphylococcus aureus, MRSA03): 256 µg/mL (≈ 954 µM)
- MIC ([6]; Staphylococcus aureus, MRSA03, 24 h, 37°C, read-out: MIC): 128 µg/mL (≈ 477 µM)
- MMC/MIC ([7]; MRSA04): 2
- MBC ([7]; Staphylococcus aureus, MRSA04): 256 µg/mL (≈ 954 µM)
- MIC ([7]; Staphylococcus aureus, MRSA04, 24 h, 37°C, read-out: MIC): 128 µg/mL (≈ 477 µM)
- antimicrobial activity class of pure compounds by cutoff points ([8]; against specific microorganism, cutoff points of ref 33): moderate/low
- MIC ([8]; read-out: MIC (range over the tested microorganisms)): 64 to 128 µg/mL (≈ 239 to 477 µM)
- DPPH free radical scavenging activity (EC50) [9]: 6.39 ± 0.62^e μg/mL
- Gallic acid equivalent antioxidant capacity (GEAC) [10]: 77.91 ± 0.59^e μg/mL
- minimum inhibitory concentration [11]: 200 µg/mL (≈ 746 µM)
- minimum inhibitory concentration [12]: 25 µg/mL (≈ 93.2 µM)
- IC50 against DPPH [13]: 4.65 µg/mL (≈ 17.3 µM)
- IC50 against hydroxyl radical [14]: 9.48 µg/mL (≈ 35.3 µM)
- IC50 against hydrogen peroxide [15]: 4.75 µg/mL (≈ 17.7 µM)
- IC50 against nitric oxide [16]: 5.0 µg/mL (≈ 18.6 µM)
- IC50 against superoxide radical [17]: 4.27 µg/mL (≈ 15.9 µM)
